“Also recorded” adds a separate entry of the source. Non-standard residues stand in square brackets, D forms with d. Residues, ends and D or L forms follow the SMILES beside them. *: point of attachment. Myristoyl = CCCCCCCCCCCCCC(=O)*; NH(CH2)4NH2 = NCCCCN*
Columns and labels:
[1] = test system: S. brevitalea DSM 7029 wild type; experiment: Biofilm formation of DSM 7029 wild type with compounds (crystal violet); type: cell-based, Schlegelella brevitalea DSM 7029; details: for effect on biofilm formation of DSM 7029 wild type in words: crystal violet staining
Description: (§1) The growth curve was tested by Bioscreen C (Labsystems, Finland) as follow. Overnight culture was inoculated into 400 μL fresh CYMG medium in the ratio of 1:100 (the concentration of compounds was 0.1 μg/μL) and shook in normal speed. The OD600 value was gained in every hour for 42 h in total. Biofilm formation was measured at 18 h and 36 h respectively, as reported previously. In brief, the free-floating cells were removed, and the microtitre plate was washed with PBS (pH 7.4) after incubation for 18 h and 36 h. The biofilm was stained by adding 200 µL of crystal violet (0.1%) solution. Crystal violet solution was removed after 15 min and 200 µL of ethanol (95%) was added. The absorbance at OD600 was read using a microplate reader (Infinite M200, Tecan, Männedorf, Switzerland). Meanwhile, free-floating cells were used to test the secretion of pigment. The bacteria were removed and the supernatant was measured at OD600.

[2] = test system: human acute lymphoblastic leukemia cells K562; experiment: cells; type: cell-based; details: 24 h
Description: (§2) The two human acute lymphoblastic leukemia cells K562 and Kasumi, two human breast adenocarcinoma cells MCF7 and MDA-MB-231, human hepatoma cell HepG-2, human lung adenocarcinoma cell A549, human gastric cancer cell SGC-7901, human colon cancer cell HCT-116, human ovarian cancer cell line SKOV3, or human lung epithelial normal cell 2B were obtained from Beyotime Biotechnology and utilized to test the cytotoxicity of compounds by MTT assays as previous study. The anti-inflammatory effect of the compounds was detected by the influence on the increase in the level of nitric oxide caused by lipopolysaccharide (LPS) based on the classic Griess method. RAW 264.7 cells (Shanghai Institutes for Biological Science) were seeded in 96-well plates and incubated for 24 h. Then, cells were treated with compounds 29, 29a, 31, and 31a (0-80 μM) for 30 min, followed by co-treatment with LPS ([…]) for another 24 h. The Nitric Oxide assay kit with Griess reagents (Beyotime, Lot: S0021, Shanghai, China) was used to examine cellular supernatant nitrite accumulation, which represents cellular NO levels. The OD value of 540 nm absorbance was detected with a microplate reader. Their authentication in the laboratory was performed regularly based on morphology and gene/protein expression. The tested micro-organisms including Gram-negative bacteria E. coli ATCC 35218 and Pseudomonas aeruginosa ATCC 27853, and Gram-positive bacteria Staphylococcus aureus ATCC 29213 and B. subtilis ATCC 6633, and fungi Candida albicans, Rhizoctonia solani and Aspergillus fumigatus were treated with different concentrations of compounds (1 μM, 10 μM, 100 μM) using Bauer-Kirby disk diffusion method to evaluate the antimicrobial activities.

[3] = test system: human colon cancer cell HCT-116; experiment: cells; type: cell-based; details: 24 h
Description: as §2

[4] = test system: human hepatoma cell HepG-2; experiment: cells; type: cell-based; details: 24 h
Description: as §2

[5] = test system: human gastric cancer cell SGC-7901; experiment: cells; type: cell-based; details: 24 h
Description: as §2

[6] = test system: human lung epithelial normal cell 2B; experiment: cells; type: cell-based; details: 24 h
Description: as §2

[7] = test system: human breast adenocarcinoma cells MCF7; experiment: cells; type: cell-based; details: 24 h
Description: as §2

[8] = test system: human breast adenocarcinoma cells MDA-MB-231; experiment: cells; type: cell-based; details: 24 h
Description: as §2

[9] = Chemical stability of 1 in MeOH (oxidation to 2); type: physicochemical; details: purified 1 dissolved in MeOH for 3 days
[10] = test system: methionyl-tRNA formyltransferase (Fmt); experiment: In vitro transformylation assay with Fmt; type: biochemical, Schlegelella brevitalea DSM 7029; details: 1 mM substrate, 25 μM Fmt, 1.5 mM N5,N10-methenylH4F, 50 mM HEPES pH 7.5, 30 °C, 4 h
Description: The in vitro assay of formyltransferase was tested. In brief, the formyl-donor co-substrate intermediate N^5, N^10-methenylH4F was first synthesized as follow: 14 mg of N^5-fH4F was dissolved in 3 mL of water and was converted to N^5, N^10-methenylH^4F through addition of 0.1 M HCl, until pH 1.9 was reached. The solution was then brought to a final volume of 4.4 mL with water and continually incubated at room temperature for 4 h. Then, the transformylation assay was setup in a 50 μL volume, in the presence of 50 mM HEPES buffer pH 7.5, 1 mM substrates (compounds 1, 1a, 13a), 1.5 mM N^5, N^10-methenylH4F, and 25 μM Fmt (35 kDa). Before the addition of the compounds and the enzyme, the intermediate N^5, N^10-methenylH4F was preincubated in the reaction buffer at 30 °C for 30 min, to permit the final pH-dependent conversion to N^10-fH4F. After the addition of the compounds and the enzyme, the reaction was allowed to proceed for 4 h at 30 °C, then ceased by the addition of 2 μL FA, and analyzed via HPLC‒MS. The condition for 1: 0–3 min, 20% ACN; 3–18 min, 20–60% ACN; 18.1 min, 95% ACN; 18.1–22 min, 95% ACN; 22.1 min, 20% ACN; 22.1–25 min, 20% ACN, ACN and H2O contained 0.1% FA; detection by UV spectroscopy at 200–400 nm. […]

[11] = test system: human cells Kasumi; experiment: MTT cytotoxicity assay, Kasumi; type: cell-based; details: for IC50: 24 h
Description: as §2

[12] = test system: S. brevitalea DSM 7029 wild type; experiment: Growth curve of DSM 7029 wild type with compounds (Bioscreen C); type: cell-based, Schlegelella brevitalea DSM 7029; details: CYMG medium; for effect on growth of DSM 7029 wild type in words: compound 0.1 μg/μL, OD600 every hour for 42 h, Bioscreen C
Description: as §1

[13] = test system: human lung adenocarcinoma cell A549; experiment: MTT cytotoxicity assay, A549; type: cell-based; details: for IC50: 24 h; for cytotoxic / antitumor activity against A549 in words: MTT assay
Description: as §2

[14] = test system: HepG2 cells; experiment: Cell numbers of HepG2 after compound treatment; type: cell-based, human; details: HepG2, 1.5 × 10^5 cells/well plated, compound 5 μg/mL, 3 h; mean of n = 3
Description: (§3) Comparing the concentration of compounds (7, 10, 10a) in extracellular and intracellular after the HepG2 cell line dealt with compounds. HepG2 cells were plated in six-well plates at a density of 1.5 × 10^5 cells/well and grew overnight. After cell treated with compounds (5 μg/mL) for 3 h, the compounds were extracted with MeOH for cells culture medium and cells separately as followed the reported method. The compounds were quantified by LC‒MS (5%‒95% ACN in 15 min). The cell numbers of HepG2 with the compounds treatments was determined. […]
(§4) To determine whether the difference in bioactivity of products (with or without Put moiety) is due to variations in cellular uptake, we treated hepatoma cell line HepG2 with compounds 7 (C12 acyl), 10 (C14 acyl), and 10a (C14 acyl and without Put) (Supplementary Fig. 33c). The cells were treated for 3 h, and then culture medium and cells were extracted separately. LC-MS was used to detect and quantify the compounds.
(§5) At lower concentrations (5000 ng/mL, and 10,000 ng in total for each group), and […]
(§6) may be contributing to the differences in antitumor activity (Supplementary Fig. 33b).
(§7) This could be due to differences in the speed of cellu lar uptake or differences in drug metabolism rate, requiring further experimental investigation.

[15] = Solubility in solvents (observation); type: physicochemical; details: observation in water, methanol, acetonitrile, DMSO
Description: Putrescine is also a precursor of some specialized compounds, such as industrial polyamide nylon 4,6[33] and siderophore alcaligin[55]. To clarify the function of the Put moiety of glidonins, we synthesized lipopeptide 10a without the Put group.

[16] = test system: tumor lines; experiment: MTT cytotoxicity assay, statements on the whole panel; type: cell-based, human; details: MTT assay, panel of tumor cell lines
Description: as §2

[17] = test system: HepG2 cells; experiment: Extracellular and intracellular compound in HepG2 cells (LC-MS); type: in vitro ADME, human; details: 3 h; for Intracellular compound, Average / Extracellular compound, Average: HepG2, six-well plates, 5 μg/mL (10,000 ng in total), mean of n = 3; for Intracellular compound, Average: cells extracted with MeOH; for Extracellular compound, Average: culture medium extracted with MeOH
Description: as §3, §4, §5, §6, §7

[18] = test system: native host DSM 7029; experiment: Inhibition zone test on the native host DSM 7029; type: cell-based, Schlegelella brevitalea DSM 7029; details: same method as for the seven tested strains
Description: as §2, with “The tested micro-organisms including Gram-negative bacteria E. coli ATCC 35218 and Pseudomonas aeruginosa ATCC 27853, and Gram-positive bacteria Staphylococcus aureus ATCC 29213 and B. subtilis ATCC 6633, and fungi Candida albicans, Rhizoctonia solani and Aspergillus fumigatus were treated with different concentrations of compounds (1 μM, 10 μM, 100 μM) using Bauer-Kirby disk diffusion method to evaluate the antimicrobial activities.” left out

[19] = relative to wild type treated with H2O = 100%, crystal violet 0.1%, OD600, mean of n = 3

Compound | effect on biofilm formation of DSM 7029 wild type in words [1] | IC50 [2] [µM] | IC50 [3] [µM] | IC50 [4] [µM] | IC50 [5] [µM] | IC50 [6] [µM] | IC50 [7] [µM] | IC50 [8] [µM] | IC50 [11] [µM] | effect on growth of DSM 7029 wild type in words [12] | IC50 [13] [µM] | cytotoxic / antitumor activity against A549 in words [13] | solubility in words [15] | Intracellular compound, Average [17] [ng] | Extracellular compound, Average [17] [ng] | also measured
CSCC[C@@H](N)C(=O)N[C@H](CC(N)=O)C(=O)N1CCC[C@H]1C(=O)N[C@H](C(=O)N[C@H](Cc1ccccc1)C(=O)N1CCC[C@H]1C(=O)N[C@@H](Cc1c[nH]c2ccccc12)C(=O)N[C@@H](C(=O)N[C@@H](C)C(=O)N[C@H](C)C(=O)N[C@@H](CO)C(=O)N[C@@H](C)C(=O)NCCCCN)C(C)C)C(C)C [Compound 1, Glidonin A] (H-[dM][dN]PV[dF]PW[dV]A[dA]SA-{NH(CH2)4NH2}) | less effect on biofilm formation | > 20 | > 20 | > 20 | > 20 | > 20 | > 20 | > 20 | 18.3 ± 1.22 | no effect | 7.2 ± 0.79 | moderate activities | – | – | – | biofilm formation 18 h, Average [1, 19]: 98.1978%; biofilm formation 36 h, Average [1, 19]: 87.2902%; chemical stability: change of 1 to the Met(O) product 2 [9]: without changing to 2; formylation by Fmt, formyl product by HPLC-MS [10]: higher than control; cytotoxic activity against Kasumi in words ([11]; MTT assay): moderate activities
CCCCCCCCCCCCCC(=O)N[C@H](CCSC)C(=O)N[C@H](CC(N)=O)C(=O)N1CCC[C@H]1C(=O)N[C@H](C(=O)N[C@H](Cc1ccccc1)C(=O)N1CCC[C@H]1C(=O)N[C@@H](Cc1c[nH]c2ccccc12)C(=O)N[C@@H](C(=O)N[C@@H](C)C(=O)N[C@H](C)C(=O)N[C@@H](CO)C(=O)N[C@@H](C)C(=O)NCCCCN)C(C)C)C(C)C [Compound 10, Glidonin J] (Myristoyl-[dM][dN]PV[dF]PW[dV]A[dA]SA-{NH(CH2)4NH2}) | increased biofilm formation | 7.2 ± 0.79 | > 20 | 6.68 | > 20 | 11.8 ± 0.15 | > 20 | 7.2 ± 0.79 | 1.39 | weak inhibition of growth; also recorded: obviously inhibit the growth | 7.15 ± 0.47 | – | easily soluble in water, methanol and acetonitrile | 6.078 | 1078.84 | The cell numbers, Average [14]: 1303333; cytotoxic / antitumor activity in words [16]: broad-spectrum cytotoxicity; OD600 of wild type DSM 7029 with addition of compounds ([12]; control OD600 0.6): 0.4; total quantities (intracellular plus extracellular) in words ([17]; HepG2, 5000 ng/mL, compared to 10a): lower total quantities; inhibition of native host DSM 7029, inhibition zone method [18]: no inhibition
CCCCCCCCCCCCCC(=O)N[C@H](CCSC)C(=O)N[C@H](CC(N)=O)C(=O)N1CCC[C@H]1C(=O)N[C@H](C(=O)N[C@H](Cc1ccccc1)C(=O)N1CCC[C@H]1C(=O)N[C@@H](Cc1c[nH]c2ccccc12)C(=O)N[C@@H](C(=O)N[C@@H](C)C(=O)N[C@H](C)C(=O)N[C@@H](CO)C(=O)N[C@@H](C)C(=O)O)C(C)C)C(C)C [Compound 10a] (Myristoyl-[dM][dN]PV[dF]PW[dV]A[dA]SA-OH) | – | – | – | > 20 | – | > 20 | – | – | – | – | > 20 | lower than those of 10 | soluble only in dimethyl sulfoxide (DMSO) | 11.984 | 7245.41 | –
